Results from US10683292B2, “Purine and 3-deazapurine analogues as choline kinase inhibitors” (NERVIANO MEDICAL SCIENCES S.R.L., priority 2016, dated 2020).
Where two headings read alike, the source gives them in different places.

Experiments:
Δ49N-hChoKα = target: T1, Δ49N-hChoKα (Homo sapiens, UniProt P35790); assay: Biochemical kinase inhibition assay (Kinase-Glo Luminescent Kinase Assay) on Δ49N-hChoKα
T1 construct: cDNA fragment 362-1534, corresponding to aminoacids 50-457; GST (N, cleaved yes); Prescission Protease recognition site (N, cleaved yes); made in house; host or cells: Escherichia coli BL21pLysS (DE3)
T1 sequence (P35790 50-457, stated change not applied): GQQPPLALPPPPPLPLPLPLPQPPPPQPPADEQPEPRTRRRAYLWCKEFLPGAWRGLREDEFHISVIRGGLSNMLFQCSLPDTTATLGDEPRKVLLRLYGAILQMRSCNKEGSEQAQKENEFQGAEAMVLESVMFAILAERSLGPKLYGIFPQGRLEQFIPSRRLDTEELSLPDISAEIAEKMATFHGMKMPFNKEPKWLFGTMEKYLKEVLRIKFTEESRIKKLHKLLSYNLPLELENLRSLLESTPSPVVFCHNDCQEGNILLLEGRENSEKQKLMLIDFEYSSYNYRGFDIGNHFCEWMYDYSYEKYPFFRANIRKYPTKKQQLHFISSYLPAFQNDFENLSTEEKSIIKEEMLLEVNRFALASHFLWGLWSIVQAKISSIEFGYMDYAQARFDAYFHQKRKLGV
Experimental: (§1) The biochemical activity of compounds against Δ49N-ChoKα and ChoKβ FL were determined using the Kinase-Glo™ Luminescent Kinase Assay (Promega cat. V6711).
(§2) Compounds were 3-fold serially diluted from 10 to 0.0005 μM, then incubated for 60 minutes at rt in the presence of ATP 5 μM, choline (5 μM for ChoKα and 20 μM for ChoKβ) and enzyme in a final volume of 19 μL of kinase buffer (50 mM Hepes pH 7.5, 10 mM MgCl2, 1 mM DTT, 3 μM Na3VO4 and 0.2 mg/mL BSA). The final concentration of DMSO was 1%.
(§3) At the end of the incubation, an amount of 19 μL of KinaseGlo Reagent was added to each well to stop the reaction and after 30 minutes the luminescence signal was measured using ViewLux reader (Perkin Elmer).
(§4) The data per each molecule are analyzed by an internally customized version of the SW package “Assay Explorer” which provides sigmoidal fittings of the ten-dilution curves for IC50 determination using a 4 parameter logistic equation: y=bottom+(top−bottom)/(1+10^((log IC50−x)*slope)) where x is the logarithm of the inhibitor concentration, y is the response; y starts at bottom and goes to top with a sigmoid shape.

hChoKβ FL = target: T2, hChoKβ FL (Homo sapiens, UniProt Q9Y259); assay: Biochemical kinase inhibition assay (Kinase-Glo Luminescent Kinase Assay) on hChoKβ FL; settings: ATP 5 μM, choline 20 μM, 60 minutes at rt; read-out: IC50 ChoKβ
T2 construct: hChoKβ full length (FL), corresponding to aminoacids 2-395; GST (N, cleaved yes); Prescission Protease recognition site (N, cleaved yes); made in house; host or cells: Escherichia coli BL21pLysS (DE3)
T2 sequence (Q9Y259 2-395): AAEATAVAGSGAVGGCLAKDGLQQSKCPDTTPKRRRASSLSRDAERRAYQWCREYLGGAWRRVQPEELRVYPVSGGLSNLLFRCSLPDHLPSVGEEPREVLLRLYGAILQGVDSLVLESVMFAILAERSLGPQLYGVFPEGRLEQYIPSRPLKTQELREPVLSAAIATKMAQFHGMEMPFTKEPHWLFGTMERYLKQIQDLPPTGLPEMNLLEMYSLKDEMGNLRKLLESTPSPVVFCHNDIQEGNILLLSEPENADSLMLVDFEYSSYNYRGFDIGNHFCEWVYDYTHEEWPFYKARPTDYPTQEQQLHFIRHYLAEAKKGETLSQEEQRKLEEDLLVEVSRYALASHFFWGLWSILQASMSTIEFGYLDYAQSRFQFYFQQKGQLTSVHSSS
Experimental: as §1, §2, §3, §4

[1] = tested on: MDA-MB-468 breast cancer cell line; assay: Phosphocholine determination assay (mechanism of action in cells), cell extracts; assay type: cell-based; settings: 24 h
Experimental: Phosphocholine Determination Assay (Mechanism of Action in Cells)
After 24 h, fresh medium and a compound of general formula (I) were added for further 24 h. At the end of the treatment, the cells were trypsinised, counted and the diameter was determined using a Coulter Counter (Multisizer 3, Beckman). […] Then, 0.7 mL ice-cold absolut EtOH were added (final ratio EtOH/H2O 70:30, v/v). After 24 h at −20° C. the samples were sonicated and centrifuged at 14,000×g for 30 minutes.
Phosphocholine concentration levels were assessed in the supernatants using an Ultra High Pressure Liquid Chromatography system (UPLC®, Waters) coupled with a triple quadrupoles mass spectrometer (TQD, Waters) operating in single reaction monitoring mode (SRM). Analyses were performed using Acquity HSS T3 column 2.1×50 mm column, 1.8 μm particle size. […] Waters TQD triple quad mass spectrometer was equipped with an electrospray ion source operating in the positive mode. Source parameters were set as follows: desolvation gas flow 1000 L/h, cone gas flow 50 L/h; collision gas flow 0.2 mL/min; source temperature 130° C.; desolvation temperature 450° C. Dimethyl glicine (DMG) was added to samples as internal standard at 100 μM final concentration. […] The concentration of PCho in the sample was normalized to the total volume of cells (number cells×volume of single cell considered like a sphere).

[2] = tested on: MDA-MB-468 breast cancer cell line; assay: Phosphocholine determination in cell medium culture (cell supernatants); assay type: cell-based; settings: compound 2 μM
Experimental: For the determination of phosphocholine in cells, extracts were prepared according to ref. Cancer Res., 2005, 65, 9369-9376 with some modifications. MDA-MB-468 breast cancer cell line was plated at 1×10^6 cells in 10 cm petri dish culture in RPMI, 10% FCS culture medium. After 24 h, fresh medium and a compound of general formula (I) were added for further 24 h. At the end of the treatment, the cells were trypsinised, counted and the diameter was determined using a Coulter Counter (Multisizer 3, Beckman). Cells were washed twice with ice-cold physiologic saline solution and 2×10^6 cells resuspended in 0.3 mL ice-cold twice-distilled water. […]
Phosphocholine concentration levels were assessed in the supernatants using an Ultra High Pressure Liquid Chromatography system (UPLC®, Waters) coupled with a triple quadrupoles mass spectrometer (TQD, Waters) operating in single reaction monitoring mode (SRM). […] The monitored transitions were m/z 184.00 to 85.7 (collision energy 24 eV) for phosphocholine and m/z 103.0 to 57.5 (collision energy 13 eV) for DMG. […]
For the determination of phosphocholine in cell medium culture, cell culture supernatants (500 μL) were denatured by adding 100 μL of trichloroacetic acid (TCA) 1M containing dimethyl glicine (DMG) (100 μM), used as internal standard. […] The supernatants were subsequently analyzed for phosphocholine determination.

[3] = ATP 5 μM, choline 5 μM, 60 minutes at rt, read-out: IC50 ChoKα

| IC50 (Δ49N-hChoKα; [3]) | IC50 (hChoKβ FL) | Compound | other results |
| --- | --- | --- | --- |
| 34 nM | 4690 nM | Nc1nc(Cl)nc2c1ncn2[C@H]1CC[C@@H](C(=O)Nc2ncc(Cl)s2)CC1 [cpd 114, cis-4-(6-amino-2-chloro-9H-purin-9-yl)-N-(5-chloro-1,3-thiazol-2-yl)cyclohexanecarboxamide] | inhibition at 0.4 µM ([1]; Homo sapiens, MDA-MB-468, compound 0.4 μM, vs untreated control): 37%; inhibition at 2 µM ([1]; Homo sapiens, MDA-MB-468, compound 2 μM, vs untreated control): 76%; [Phosphocholine] in MDA-MB-468 cell extracts ([1]; compound 0.4 μM): 5.21 mM; [Phosphocholine] in MDA-MB-468 cell extracts ([1]; compound 2 μM): 1.98 mM; inhibition at 2 µM ([2]; Homo sapiens, MDA-MB-468, vs untreated control): 66%; [Phosphocholine] in MDA-MB-468 cell supernatants [2]: 2.50 µM |
| – | – | CN1CCc2nc(NC(=O)[C@H]3CC[C@@H](n4cnc5c(N)nc(F)nc54)CC3)sc2C1 [cpd 179, cis-4-(6-amino-2-fluoro-9H-purin-9-yl)-N-(5-methyl-4,5,6,7-tetrahydro[1,3]thiazolo[5,4-c]pyridin-2-yl)cyclohexanecarboxamide] | [Phosphocholine] in MDA-MB-468 cell extracts ([1]; compound 0.08 μM): 6.40 mM; [Phosphocholine] in MDA-MB-468 cell extracts ([1]; compound 0.4 μM): 3.27 mM; [Phosphocholine] in MDA-MB-468 cell extracts ([1]; compound 2 μM): 0.69 mM |
| 24 nM | > 10000 nM | Nc1nc(F)nc2c1ncn2[C@H]1CC[C@@H](C(=O)Nc2nc3c(s2)COCC3)CC1 [cpd 200, cis-4-(6-amino-2-fluoro-9H-purin-9-yl)-N-(6,7-dihydro-4H-pyrano[4,3-d][1,3]thiazol-2-yl)cyclohexanecarboxamide] | – |
| 19 nM | > 10000 nM | C#Cc1nc(N)c2ncn([C@H]3CC[C@@H](C(=O)Nc4nc5c(s4)CN(C)CC5)CC3)c2n1 [cpd 201, cis-4-(6-amino-2-ethynyl-9H-purin-9-yl)-N-(5-methyl-4,5,6,7-tetrahydro[1,3]thiazolo[5,4-c]pyridin-2-yl)cyclohexanecarboxamide] | – |
| 1810 nM | > 10000 nM | Cc1csc(NC(=O)[C@H]2CC[C@@H](n3cnc4c(N)nccc43)CC2)n1 [cpd 204, cis-4-(4-amino-1H-imidazo[4,5-c]pyridin-1-yl)-N-(4-methyl-1,3-thiazol-2-yl)cyclohexanecarboxamide] | – |
| 15 nM | 5200 nM | Nc1nc(Cl)nc2c1ncn2[C@H]1CC[C@@H](C(=O)Nc2nc3c(s2)CCCC3)CC1 [cpd 205, cis-4-(6-amino-2-chloro-9H-purin-9-yl)-N-(4,5,6,7-tetrahydro-1,3-benzothiazol-2-yl)cyclohexanecarboxamide] | – |
| 16 nM | > 10000 nM | Nc1nc(F)nc2c1ncn2[C@H]1CC[C@@H](C(=O)Nc2nc3c(s2)CCCC3)CC1 [cpd 206, cis-4-(6-amino-2-fluoro-9H-purin-9-yl)-N-(4,5,6,7-tetrahydro-1,3-benzothiazol-2-yl)cyclohexanecarboxamide] | – |

| Compound | IC50 (Δ49N-hChoKα; [3]) | IC50 (hChoKβ FL) | other results |
| --- | --- | --- | --- |
| CN1CCc2nc(NC(=O)[C@H]3CC[C@@H](n4cnc5c(N)nc(C#C[Si](C)(C)C)nc54)CC3)sc2C1 [cpd 199, cis-4-{6-amino-2-[(trimethylsilyl)ethynyl]-9H-purin-9-yl}-N-(5-methyl-4,5,6,7-tetrahydro[1,3]thiazolo[5,4-c]pyridin-2-yl)cyclohexanecarboxamide] | – | > 10000 nM | IC50 (Δ49N-hChoKα): 67 nM |
